Experimental data reported in patent publication US8293231B2, “Methods and compositions for treating ischemia” (Blue Blood Biotech Corp., priority 2005, dated 2012).

Legend:
[1] = system: Matrigel plugs in FVB mice; test: Murine angiogenesis assay (Matrigel plug); assay type: in vivo
[2] = system: MMP-1, MMP-2, MMP-3, and MMP-9 in HUVEC conditioned medium; test: Gelatin and casein zymographies; assay type: cell-based, human; settings: gelatin zymography
Description: (§1) HUVECs were seeded at 80% confluence on 100-mm dishes in M199 medium. After 24 h, cells were rinsed with serum-free M199 twice and incubated in serum-free M199 with various concentrations of TMD23, VEGF (10 ng/mL), or PMA (70 ng/mL) for 12 h. The conditioned medium containing […] secreted proteins was analyzed by gelatin- and casein-based zymographies. The digested area appeared clear on a blue background, indicating the location of matrix metalloproteinase (MMP) activity. To further verify MMP caseinolytic activity, the casein-containing gel was incubated with incubation buffer containing 10 mM EDTA, an inhibitor of MMPs, to observe disappearance of the clear band. Plasminogen activator inhibitor (PAI) activity was measured by titrating samples with increasing amounts of tissue-type plasminogen activator (t-PA) (Boehringer Ingelheim) into a fixed volume of endothelial-cell-conditioned media.
as §1, with “zymographies. Lee O H, et al., Identification of angiogenic properties of insulin-like growth factor II in in vitro angiogenesis models. Brit J. Cancer. 2000; 82:385-391.” for “zymographies.”, “media. Shi G Y., et al., Plasmin and the regulation of tissue-type plasminogen activator biosynthesis in human endothelial cells. […]” for “media.”

[3] = Thrombomodulin activity assay (cofactor activity for thrombin-dependent protein C activation); assay type: biochemical
Description: (§2) Cofactor activity of TMD2 and TMD23 for thrombin-dependent protein C activation was measured as described previously. Huang H C., et al Thrombomodulin-mediated cell adhesion: Involvement of its lectin-like domain. J Biol. Chem. 2003; 278:46750-46759.
(§3) Cofactor activity of TMD2 and TMD23 for thrombin-dependent protein C activation was measured as described previously. Huang H C., et al Thrombomodulin-mediated cell adhesion: Involvement of its lectin-like domain. J Biol. Chem. 2003; 278: 46750-46759.

[4] = target: thrombin-dependent protein C activation (Homo sapiens, UniProt P00734); test: as above; assay type: biochemical; settings: on an equal molar basis
Description: as §2, §3

[5] = system: HUVECs; test: In vitro Matrigel angiogenesis assay (tube formation); assay type: cell-based, human
Description: (§4) Growth-factor-reduced Matrigel (BD Biosciences) was thawed at 4° C. A total of 200 μL Matrigel was added to wells of a 48-well plate and polymerized 30 min at 37° C. Two hundred μL cell suspension containing various concentrations of VEGF, TMD23, or TMD23 in the presence of polyclonal rabbit anti-TMD23 antibody (10 μg/mL) or various signaling pathway inhibitors were plated onto Matrigel-coated wells at a density of 2.4×10^4 cells/well in M199 containing 10% FBS for 24 h at 37° C. in a 5% CO2 humidified atmosphere. Each concentration was tested in triplicate in the same plate, with wells photographed using a Leica camera (40× magnification). Tube length was quantified by measuring tubes in five randomly chosen fields from each well using MetaMorph software. Experiments were repeated at least three times.
as §4, with “5° k” for “5%”

Substance: TMD23: Recombinant human thrombomodulin fragment, amino acids Ala242-Ser515 of SEQ ID NO: 2: six EGF-like structures (D2) plus Ser/Thr-rich domain D3
- Appearance of Matrigel plugs, without heparin [1]: pale
- Expression of MMP-2 and MMP-9 ([2]; 12 h): no significant effect
- Expression of MMP-1/3 ([2]; MMP-3 confirmed by caseinolytic zymography): stimulated expression
- Cofactor activity for thrombin-dependent protein C activation [3]: 2,650 pmol of APC formed/min/mg TMD23
- Cofactor activity higher than that of TMD2 [4]: 25%
- HUVEC tube formation on Matrigel ([5]; 24 h, VEGF 10 ng/mL, TMD23 5 to 250 ng/mL): formed elongated capillary-like structures, with complete networks
- Tubule length per well ([5]; FIG. 5G): stimulated tube formation in dose-dependent manner
